# Assay results: US20050032810A1, “Novel anthelmintic and insecticidal compositions” (priority 2003, published 2005)
# System: H. contortus larvae
# Experiment: H. contortus Larval Development Assay
# Assay type: cell-based
# Settings: at 10 μM
# From the text: Compounds can be evaluated for anthelmintic activity according to the H. contortus Larval Development Assay described in Journal of Helminthology, 1984, 58, 107.
smiles,measurement,value
"Nc1cc(N2CCC(c3ccccc3)CC2)nc(N)n1 [Compound 2, 6-(4-phenylpiperidin-1-yl)pyrimidine-2,4-diamine]",motility of the larvae,inhibited motility of the larvae
